The supplement of paper PMC10307832

How the values were obtained:
Experiment in all cases: relative viability (nuclei count vs DMSO), 5 days (fraction); higher = more cells survive
[1] = tested on: NCI-H1563; conditions: first compound 0.02 µM
Summary of the method: (§1)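 For relative viability, nuclei counts in treated wells were divided by those in vehicle wells. Lung cancer cell lines had been pin-tool dosed in 1536-well plates the day after seeding and cultured for 5 days, then fixed and stained in one step (final 0.05% Triton X-100, 1% formaldehyde, 1 ug/ml Hoechst) and imaged at 4×. Doses were one drug alone or a fixed anchor-drug dose plus five library-drug doses (not always all listed) in √10 steps, and values are duplicate-plate medians.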

[2] = tested on: NCI-H1650
Summary of the method: as §1

[3] = tested on: NCI-H1793
Summary of the method: as §1

[4] = tested on: NCI-H2228
Summary of the method: as §1

[5] = tested on: NCI-H2347
Summary of the method: as §1

[6] = tested on: NCI-H23
Summary of the method: as §1

[7] = tested on: NCI-H460
Summary of the method: as §1

[8] = tested on: NCI-H596
Summary of the method: as §1

[9] = tested on: PC-14
Summary of the method: as §1

[10] = tested on: SW 1573
Summary of the method: as §1

[11] = tested on: SW 900
Summary of the method: as §1

CC(=O)O[C@@]12CO[C@@H]1C[C@H](O)[C@@]1(C)C(=O)[C@H](O)C3=C(C)[C@@H](OC(=O)[C@H](O)[C@@H](NC(=O)OC(C)(C)C)c4ccccc4)C[C@@](O)([C@@H](OC(=O)c4ccccc4)[C@H]21)C3(C)C [Docetaxel] + Nc1nc2[nH]cc(CCc3ccc(C(=O)N[C@@H](CCC(=O)O)C(=O)O)cc3)c2c(=O)[nH]1 [Pemetrexed] (partner 0.2 µM) was tested, and the relative viability [1] was 0.374, the relative viability ([2]; first compound 0.0002 µM) was 0.387 and the relative viability ([2]; first compound 0.000632 µM) was 0.412. It also gave a relative viability ([2]; first compound 0.002 µM) of 0.28, a relative viability ([2]; first compound 0.006325 µM) of 0.263 and a relative viability ([2]; first compound 0.02 µM) of 0.158. The relative viability ([3]; first compound 0.0002 µM) was 0.842, the relative viability ([3]; first compound 0.000632 µM) was 0.603 and the relative viability ([3]; first compound 0.002 µM) was 0.251. For the same compound, the relative viability ([3]; first compound 0.006325 µM) was 0.271, the relative viability ([3]; first compound 0.02 µM) was 0.188 and the relative viability ([4]; first compound 0.0002 µM) was 0.319. The relative viability ([4]; first compound 0.000632 µM) was 0.228, the relative viability ([4]; first compound 0.002 µM) was 0.154 and the relative viability ([4]; first compound 0.006325 µM) was 0.146. For the same compound, the relative viability ([4]; first compound 0.02 µM) was 0.11, the relative viability ([5]; first compound 0.0002 µM) was 0.422 and the relative viability ([5]; first compound 0.000632 µM) was 0.446. For the same compound, the relative viability ([5]; first compound 0.002 µM) was 0.419, the relative viability ([5]; first compound 0.006325 µM) was 0.429 and the relative viability ([5]; first compound 0.02 µM) was 0.357. For the same compound, the relative viability ([6]; first compound 0.0002 µM) was 0.712, the relative viability ([6]; first compound 0.000632 µM) was 0.557 and the relative viability ([6]; first compound 0.002 µM) was 0.258. The relative viability ([6]; first compound 0.006325 µM) was 0.207, the relative viability ([6]; first compound 0.02 µM) was 0.14 and the relative viability ([7]; first compound 0.0002 µM) was 0.0551. For the same compound, the relative viability ([7]; first compound 0.000632 µM) was 0.0652, the relative viability ([7]; first compound 0.002 µM) was 0.0375 and the relative viability ([7]; first compound 0.006325 µM) was 0.0299. The relative viability ([7]; first compound 0.02 µM) was 0.021, the relative viability ([8]; first compound 0.0002 µM) was 0.486 and the relative viability ([8]; first compound 0.000632 µM) was 0.568. It also gave a relative viability ([8]; first compound 0.002 µM) of 0.675, a relative viability ([8]; first compound 0.006325 µM) of 0.441 and a relative viability ([8]; first compound 0.02 µM) of 0.369. It also gave a relative viability ([9]; first compound 0.0002 µM) of 0.13, a relative viability ([9]; first compound 0.000632 µM) of 0.144 and a relative viability ([9]; first compound 0.002 µM) of 0.129. It also gave a relative viability ([9]; first compound 0.006325 µM) of 0.0511, a relative viability ([9]; first compound 0.02 µM) of 0.0414 and a relative viability ([10]; first compound 0.0002 µM) of 0.557. For the same compound, the relative viability ([10]; first compound 0.000632 µM) was 0.478, the relative viability ([10]; first compound 0.002 µM) was 0.236 and the relative viability ([10]; first compound 0.006325 µM) was 0.146. It also gave a relative viability ([10]; first compound 0.02 µM) of 0.138, a relative viability ([11]; first compound 0.0002 µM) of 0.462 and a relative viability ([11]; first compound 0.000632 µM) of 0.332. For the same compound, the relative viability ([11]; first compound 0.002 µM) was 0.303, the relative viability ([11]; first compound 0.006325 µM) was 0.281 and the relative viability ([11]; first compound 0.02 µM) was 0.24.
